Source: publication PMC10541198, “Specific quinone reductase 2 inhibitors reduce metabolic burden and reverse Alzheimer’s disease phenotype in mice” (The Journal of Clinical Investigation, 2023)
Where “and” joins values, the source holds several entries; their conditions need not be identical. Identical values can stand only once.

System: HCT116 cells
Assay: H2DCFDA detection of cellular ROS
Assay type: cell-based, human
Settings: 20 μM, 3 hour, WT HCT116
Experimental: To establish direct target engagement and cell membrane permeability, a cellular thermal shift assay (CETSA) was carried out, using leading QR2is YB’s-537, 800, and 808. Following a 1 hour preincubation with 5 μM of the QR2is or vehicle, thermal aggregation curves (Taggs) of QR2 expressed in HEK293T were measured in increasing temperatures. All QR2is increased QR2 thermal stability compared with vehicle (Supplemental Figure 2A). Based on the Tagg curves we selected 73°C for isothermal dose-response fingerprint (IDTRF) experiments (Supplemental Figure 2B). The ITDRF allowed the relative quantification of the binding of each of the QR2is to QR2, measured as the EC50 (Figure 3A). […] We evaluated the safety of the QR2is using cell toxicity and viability assays. […] Cell viability was assessed by XTT assay in HEK239T cells, using a dose response, with 3- or 24-hour incubations of the leading QR2is. […] We then assessed WT HCT116 cells by immunoblot (Supplemental Figure 2, C and D), after being treated with YB-800 (2 μM) for 4 consecutive days. […]
The cells wer e har ves t ed a nd resuspended in 1% cl ear m e di um ( DM EM – with no phenol red, suppl em ent ed with 1% FBS, 1% L-Glutamine and 1% Penicillin-Streptomycin). […] The plate wa s then incubated in the dark at 37°C f or 3 h, before reading in a Tecan M200 Pro florescence microplate reader, using wavelengths Ex/Em = 485 nm / 535 nm . […]

For `Cc1ccc(-c2cn3cccc(C)c3n2)cc1S(=O)(=O)N1CCC(C)CC1` [YB-800], the “ROS levels (replicates)” value was 0.005141 and -0.1557 and -0.2104 and -0.08593 and -0.04485.
